pIC50: −log10 of the molar value. Structures can show the parent of a compound that is named as a salt.
Tests used:
Format in all cases: biochemical
S. aureus DltA = S. aureus DltA (Staphylococcus aureus (strain NCTC 8325 / PS 47), UniProt Q2FZW6); assay: in vitro DltA activity assay (luminescence), S. aureus DltA; details: recombinant DltA, 30 min pre-incubation, 0.5 mM D-Alanine, 0.5-5 μM ATP; read-out: S. aureus DltA IC50
Experimental: (§1) The effect of the compounds of the invention on DltA enzymes has been based on the measure of their inhibition of DltA activity in vitro. To this end, recombinant proteins DltA were expressed and purified after cloning of the genes of S. aureus, E. faecalis, E. faecium and S. agalactiae as described thereafter. The capacity of the compounds of the invention to inhibit DltA enzymatic activity was assessed using the DltA assays as described below:
(§2) The dltA gene was amplified from chromosomal DNA of S. aureus, E. faecalis, E. faecium and S. agalactiae and introduced into E. coli BL21 (Invitrogen, Carlsbad, Calif.) following manufacturer's instruction. Bacteria were grown at 37° C. under aerobic conditions and isopropyl-beta-D-thiogalactopyranoside (IPTG) was added to 0.5-1 mM when OD600 of the bacterial culture had reached 0.5. After a further incubation for 3 hours, cells were harvested by centrifugation. Purification of the recombinant DltA protein was performed by affinity chromatography on nickel-nitrilotriacetic acid (Ni-NTA) column following manufacturer's instructions (Qiagen). Fractions containing recombinant DltA protein were adjusted to 50% glycerol and stored at −20° C. until use.
(§3) The binding potency of the inhibitors against DltA enzyme was assessed by IC50 determination in an in vitro DltA activity assay. The assay buffer “AB” contained 50 mM Hepes pH8.0, 10 mM MgCl2, 50 mM KCl, 0.012% Triton-X100, 10 mM DTT and 100 nM Myelin-basic protein. The following components were added in a white polystyrene Costar plate up to a final volume of 30 μL: 3 μL DMSO, or inhibitor dissolved in DMSO and 27 μL DltA enzyme in AB. After 30 min of pre-incubation at room temperature, 30 μL of Substrates mix in AB were added in each well to a final volume of 60 μL. This reaction mixture was then composed of DltA (produced in house from S. aureus, E. faecalis, E. faecium and S. agalactiae), 0.5 mM D-Alanine (Sigma), 0.5-5 μM ATP (Sigma) and 0.05 u/ml inorganic pyrophosphatase (Sigma) in assay buffer. After typically 1-2 hours of incubation at room temperature (conversion rate around 30%), 30 μL of the revelation mix were added to a final volume of 90 μL, including the following constituents at the respective final concentrations: 10000 u/ml luciferase (Sigma), 30 μM D-luciferin (Sigma), 100 μM N-acetylcysteamine (Aldrich). Luminescence intensity was immediately measured on a Fluostar Optima (BMG) (excitation 360 nm, emission 520 nm) and converted into inhibition percentages. For IC50 determinations (Inhibitory Concentration 50%) the inhibitor was added at 6 to 10 different concentrations and the related inhibitions were fitted to a classical Langmuir equilibrium model using XLFIT (IDBS).
(§4) For compounds interfering with the luminescent signal (quenching), the same experiment without DltA enzyme was performed to allow quenching determination and correction.

S. Agalactiae DltA = S. Agalactiae DltA (Streptococcus agalactiae serotype III (strain NEM316), UniProt Q8VM67); assay: in vitro DltA activity assay (luminescence), S. agalactiae DltA; details: recombinant DltA, 30 min pre-incubation, 0.5 mM D-Alanine, 0.5-5 μM ATP; read-out: S. Agalactiae DltA IC50
Experimental: as §1, §2, §3, §4

E. feacalis DltA = E. feacalis DltA (Enterococcus faecalis, UniProt Q830N0); assay: in vitro DltA activity assay (luminescence), E. faecalis DltA; details: recombinant DltA, 30 min pre-incubation, 0.5 mM D-Alanine, 0.5-5 μM ATP; read-out: E. feacalis DltA IC50
Experimental: as §1, §2, §3, §4

E. feacium DltA = E. feacium DltA (Enterococcus faecium, UniProt Q3XZT7); assay: in vitro DltA activity assay (luminescence), E. faecium DltA; details: recombinant DltA, 30 min pre-incubation, 0.5 mM D-Alanine, 0.5-5 μM ATP; read-out: E. feacium DltA IC50
Experimental: as §1, §2, §3, §4

Sequence of E. feacalis DltA (Q830N0 1-506): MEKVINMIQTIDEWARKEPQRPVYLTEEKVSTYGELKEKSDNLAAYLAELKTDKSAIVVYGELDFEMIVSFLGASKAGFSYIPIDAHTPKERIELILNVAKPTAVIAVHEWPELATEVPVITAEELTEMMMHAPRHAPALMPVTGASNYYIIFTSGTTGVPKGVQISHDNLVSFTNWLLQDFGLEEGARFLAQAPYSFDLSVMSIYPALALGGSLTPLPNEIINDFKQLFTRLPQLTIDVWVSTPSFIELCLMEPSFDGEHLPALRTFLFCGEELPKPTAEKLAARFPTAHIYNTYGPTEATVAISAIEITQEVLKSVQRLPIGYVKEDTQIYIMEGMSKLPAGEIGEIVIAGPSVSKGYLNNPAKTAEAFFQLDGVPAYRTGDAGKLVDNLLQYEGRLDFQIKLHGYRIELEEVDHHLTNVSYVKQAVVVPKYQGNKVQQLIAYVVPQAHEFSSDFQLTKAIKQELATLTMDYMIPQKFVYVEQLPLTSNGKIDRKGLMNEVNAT
Sequence of E. feacium DltA (Q3XZT7 1-504): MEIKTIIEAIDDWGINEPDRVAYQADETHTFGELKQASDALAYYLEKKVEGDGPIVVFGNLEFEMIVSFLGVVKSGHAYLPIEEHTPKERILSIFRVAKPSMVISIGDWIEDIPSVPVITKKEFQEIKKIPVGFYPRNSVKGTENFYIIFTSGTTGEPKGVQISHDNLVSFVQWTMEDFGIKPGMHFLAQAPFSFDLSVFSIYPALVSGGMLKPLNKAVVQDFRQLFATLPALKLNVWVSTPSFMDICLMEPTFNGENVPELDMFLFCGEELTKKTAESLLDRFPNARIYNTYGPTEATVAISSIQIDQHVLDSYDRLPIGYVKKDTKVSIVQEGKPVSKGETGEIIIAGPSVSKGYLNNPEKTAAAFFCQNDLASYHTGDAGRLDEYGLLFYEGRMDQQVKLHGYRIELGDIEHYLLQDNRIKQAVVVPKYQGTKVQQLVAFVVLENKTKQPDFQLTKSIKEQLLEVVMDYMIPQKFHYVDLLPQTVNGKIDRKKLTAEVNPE

Row | Structure (SMILES) | pIC50 (S. aureus DltA) | pIC50 (S. Agalactiae DltA) | pIC50 (E. feacalis DltA) | pIC50 (E. feacium DltA)
1 | C[C@H]1CCCC(n2cnc3cc(-c4cc(N(C)CCN(C)C)c(C(N)=O)c5[nH]cnc45)ccc32)C1 (mixture of isomers) [Example 136] | 8.24 | 6.44 | – | –
2 | OC[C@H]1CCN(c2cc(-c3ccc4c(c3)ncn4C3CCCCC3)c3nc[nH]c3n2)C[C@@H]1O [Example 2, (3R,4R)-1-[7-(1-Cyclohexyl-1H-benzimidazol-5-yl)-3H-imidazo[4,5-b]pyridin-5-yl]-4-hydroxymethyl-piperidin-3-ol] | 7.18 | 6.30 | 7.74 | 7.07
3 | OCC1CCN(c2cc(-c3ccc4c(c3)ncn4C3CCCCC3)c3nc[nH]c3n2)CC1 [Example 3, {1-[7-(1-Cyclohexyl-1H-benzimidazol-5-yl)-3H-imidazo[4,5-b]pyridin-5-yl]-piperidin-4-yl}-methanol] | 6.70 | 5.85 | 7.28 | 7.00
4 | OCCNc1cc(-c2ccc3c(c2)ncn3C2CCCCC2)c2nc[nH]c2n1 [Example 4, 2-[7-(1-Cyclohexyl-1H-benzimidazol-5-yl)-3H-imidazo[4,5-b]pyridin-5-ylamino]-ethanol] | 6.28 | 5.51 | 6.42 | 5.66
5 | OCC1(CO)CCN(c2cc(-c3ccc4c(c3)ncn4C3CCCCC3)c3nc[nH]c3n2)CC1 [Example 6, {1-[7-(1-Cyclohexyl-1H-benzimidazol-5-yl)-3H-imidazo[4,5-b]pyridin-5-yl]-4-hydroxymethyl-piperidin-4-yl}-methanol] | 7.96 | 6.74 | 7.74 | 7.54
6 | OCCC1CCN(c2cc(-c3ccc4c(c3)ncn4C3CCCCC3)c3nc[nH]c3n2)C1 (stereo not shown) [Example 10, 2-{1-[7-(1-Cyclohexyl-1H-benzimidazol-5-yl)-3H-imidazo[4,5-b]pyridin-5-yl]-pyrrolidin-3-yl}-ethanol] | 6.80 | 5.42 | 7.14 | 6.92
7 | c1nc2c(-c3ccc4c(c3)ncn4C3CCCCC3)cc(N3CC4CNCC4C3)nc2[nH]1 (stereo not shown) [Example 11, 7-(1-Cyclohexyl-1H-benzimidazol-5-yl)-5-(hexahydro-pyrrolo[3,4-c]pyrrol-2-yl)-3H-imidazo[4,5-b]pyridine] | 8.85 | 6.59 | 7.72 | 7.52
8 | OC[C@H]1CCN(c2cc3[nH]cnc3c(-c3ccc4c(c3)ncn4C3CCCCC3)n2)C[C@@H]1O [Example 19, (3R,4R)-1-[4-(1-Cyclohexyl-1H-benzimidazol-5-yl)-1H-imidazo[4,5-c]pyridin-6-yl]-4-hydroxymethyl-piperidin-3-ol] | 7.48 | 5.72 | 6.34 | 5.74
9 | OCC1(CO)CCN(c2cc3[nH]cnc3c(-c3ccc4c(c3)ncn4C3CCCCC3)n2)CC1 [Example 20, {1-[4-(1-Cyclohexyl-1H-benzimidazol-5-yl)-1H-imidazo[4,5-c]pyridin-6-yl]-4-hydroxymethyl-piperidin-4-yl}-methanol] | 7.92 | 6.54 | 7.25 | 6.77
10 | c1nc2c(-c3ccc4c(c3)ncn4C3CCCCC3)nc(N3CC4CNCC4C3)cc2[nH]1 (stereo not shown) [Example 24, 4-(1-Cyclohexyl-1H-benzimidazol-5-yl)-6-(hexahydro-pyrrolo[3,4-c]pyrrol-2-yl)-1H-imidazo[4,5-c]pyridine] | 7.42 | 5.28 | 6.24 | 5.43
11 | OCC1(CO)CCN(c2cc(-c3ccc4c(c3)ncn4C3CCCCC3)c3nc[nH]c3c2)CC1 [Example 34, [1-(1′-Cyclohexyl-1H,1′H-[4,5′]bibenzimidazolyl-6-yl)-4-hydroxymethyl-piperidin-4-yl]-methanol] | 6.96 | 6.42 | 7.10 | 6.77
12 | CCn1cnc2cc(-c3cc(OCCN(C)C)c(C(N)=O)c4[nH]cnc34)ccc21 [Example 198, 6-(2-Dimethylamino-ethoxy)-1′-ethyl-1H,1′H-[4,5′]]bibenzimidazolyl-7-carboxamide methanesulfonic acid salt] | – | 5.85 | – | –

— patent publication US10301305B2 (priority 2014, dated 2019)
